# Measurements: patent US20250101001A1 (priority 2021, published 2025)
# Tests used:
# 5HT2A sensor = format: cell-based
# 5-HT2A [1] = biological target: T1, 5-HT2A (Homo sapiens, UniProt P28223); assay: Serotonin 5-HT2A in vitro cellular IPOne antagonism assay; format: cell-based; set-up: host or cells: CHO-K1; conditions: CHO-K1 cells, IPOne HTRF, reference agonist a-Me-5HT
# Experimental: (§1) Serotonin 5-HT2A and 5-HT2C In Vitro Cellular IPOne Antagonism Assay. The 5-HT2A and 5-HT2C IPOne HTRF assay was performed at Epics Therapeutics S.A. (Belgium, FAST-0505I) in antagonism mode using conventional methods. Briefly, CHO-K1 cells expressing human recombinant 5-HT2A or 5-HT2C receptor grown to mid-log phase in culture media without antibiotics were detached with PBS-EDTA, centrifuged, and resuspended in medium without antibiotics buffer. 20,000 cells were distributed in a 96 well plate and incubated overnight at 37° C. with 5% C02.
# For antagonist testing, a reference agonist a-Me-5HT was added and fluorescence signal monitored for several minutes, followed by addition of 20 μlof assay buffer plus 20 μl of test compound or reference antagonist ketanserin, in each well. The plate was incubated for 60 min. at 37° C. with 5% CO2.
# (§2) After addition of the lysis buffer containing IP1-d2 and anti-IP1 cryptate detection reagents, plates were incubated 1-hour at room temperature, and fluorescence ratios were measured according to the manufacturer specification, with the HTRF kit.
# 5-HT2A [2] = biological target: T1, 5-HT2A; assay: Serotonin 5-HT2A in vitro radioligand binding competition assay ([3H]-DOI); set-up: purchased Epics Therapeutics S. A. (Belgium) FAST-0505B; conditions: [3H]-DOI competition, membrane extracts
# Experimental: Serotonin 5-HT2A In Vitro Radioligand Binding Competition Assay. The 5-HT2A radioligand binding competition assay was performed at Epics Therapeutics S. A. (Belgium, FAST-0505B) using conventional methods. Briefly, competition binding was performed in duplicate in the wells of a 96 well plate (Master Block, Greiner, 786201) containing binding buffer (optimized for each receptor), membrane extracts (amount of protein/well optimized for each receptor), radiotracer [^3H]-DOI (final concentration optimized for each receptor) and test compound. Nonspecific binding was determined by co-incubation with 200-fold excess of cold competitor. The samples were incubated in a final volume of 0.1 ml at a temperature and for a duration optimized for each receptor and then filtered over filter plates. Filters were washed six times with 0.5 ml of ice-cold washing buffer (optimized for each receptor) and 50 μl of Microscint 20 (Packard) were added in each well. The plates were incubated 15 min on an orbital shaker and then counted with a TopCount™ for 1 min/well.
# 5-HT2A [3] = biological target: T1, 5-HT2A; assay: Serotonin 5-HT2A in vitro cellular IPOne agonism assay; format: cell-based; set-up: host or cells: CHO-K1; conditions: CHO-K1 cells, IPOne HTRF, agonist mode
# Experimental: as §1, with “5-HT2A” for “5-HT2A and 5-HT2C”, “IPOne Agonism” for “IPOne Antagonism”, “FAST-0505I)” for “FAST-0505I) in antagonism mode”, “5-HT2A” for “5-HT2A or 5-HT2C”, “cells are” for “cells were”, “5% Co2.” for “5% C02.”
# For agonist testing, the medium was removed and […] of assay buffer plus 20 μl of test compound or reference agonist were added in each well. The plate was incubated for 60 min. at 37° C. with 5% CO2.
# as §2
# T1 sequence (P28223 whole entry): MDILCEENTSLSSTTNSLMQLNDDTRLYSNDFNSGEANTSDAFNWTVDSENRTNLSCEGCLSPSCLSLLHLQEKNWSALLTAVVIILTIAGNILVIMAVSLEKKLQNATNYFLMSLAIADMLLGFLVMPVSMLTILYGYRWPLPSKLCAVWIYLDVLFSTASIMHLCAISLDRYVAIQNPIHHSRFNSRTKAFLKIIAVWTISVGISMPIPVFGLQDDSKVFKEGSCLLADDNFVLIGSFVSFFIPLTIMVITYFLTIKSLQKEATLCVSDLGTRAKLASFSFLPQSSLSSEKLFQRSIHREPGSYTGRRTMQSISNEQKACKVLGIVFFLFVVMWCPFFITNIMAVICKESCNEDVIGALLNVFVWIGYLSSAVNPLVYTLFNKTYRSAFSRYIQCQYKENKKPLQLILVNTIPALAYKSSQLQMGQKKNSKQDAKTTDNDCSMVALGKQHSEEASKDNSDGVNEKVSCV
SMILES,activation of the 5HT2A sensor assay in agonist mode (5HT2A sensor),IC50 (5-HT2A [1]) [nM],IC50 (5-HT2A [2]) [nM],EC50 (5-HT2A [3]) [nM]
COc1cc(CC(C)N)c(OC)cc1I.Cl (racemic) [DOI],activate the 5HT2A sensor assay in agonist mode,,,
"Cc1cn(C2CNC2)c2ccc(F)cc12 [Compound 1, 1-(azetidin-3-yl)-5-fluoro-3-methyl-1H-indole]",,1000 to 10000,101 to 1000,> 10000
"Fc1ccc2c(ccn2C2CNC2)c1F [Compound 2, 1-(azetidin-3-yl)-4,5-difluoro-1H-indole]",,101 to 1000,101 to 1000,> 10000
"Cc1cn(C2CCNCC2)c2ccc(F)cc12 [Compound 3, 5-fluoro-3-methyl-1-(piperidin-4-yl)-1H-indole]",,101 to 1000,101 to 1000,> 10000
"Fc1ccc2c(ccn2C2CCNCC2)c1F [Compound 4, 4,5-difluoro-1-(piperidin-4-yl)-1H-indole]",,101 to 1000,101 to 1000,> 10000
"Cc1cn(C2CN(C)C2)c2ccc(F)cc12 [Compound 5, 5-fluoro-3-methyl-1-(1-methylazetidin-3-yl)-1H-indole]",,1000 to 10000,101 to 1000,> 10000
"CN1CC(n2ccc3c(F)c(F)ccc32)C1 [Compound 6, 4,5-Difluoro-1-(1-methylazetidin-3-yl)-1H-indole]",,101 to 1000,101 to 1000,> 10000
"Cc1cn(C2CCN(C)C2)c2ccc(F)cc12 (stereo not shown) [Compound 7, 5-Fluoro-3-methyl-1-(1-methylpyrrolidin-3-yl)-1H-indole]",,1000 to 10000,1000 to 10000,> 10000
"CN1CCC(n2ccc3c(F)c(F)ccc32)C1 (stereo not shown) [Compound 8, 4,5-difluoro-1-(1-methylpyrrolidin-3-yl)-1H-indole]",,101 to 1000,101 to 1000,101 to 1000
"Cc1cn(C2CCN(C)CC2)c2ccc(F)cc12 [Compound 9, 5-fluoro-3-methyl-1-(1-methylpiperidin-4-yl)-1H-indole]",,101 to 1000,101 to 1000,> 10000
"CN1CCC(n2ccc3c(F)c(F)ccc32)CC1 [Compound 10, 4,5-difluoro-1-(1-methylpiperidin-4-yl)-1H-indole]",,101 to 1000,101 to 1000,> 10000
"CC(C)c1cn(C2CCN(C)C2)c2ccc(F)cc12 (stereo not shown) [Compound 11, 5-fluoro-3-isopropyl-1-(1-methylpyrrolidin-3-yl)-1H-indole]",,101 to 1000,1000 to 10000,> 10000
"CN1CCC(n2cc(-c3ccccc3)c3cc(F)ccc32)C1 (stereo not shown) [Compound 12, 5-fluoro-1-(1-methylpyrrolidin-3-yl)-3-phenyl-1H-indole]",,10 to 100,10 to 100,> 10000
"Cc1cn(C2CCN(C)C2)c2ccc(OC3COC3)cc12 (stereo not shown) [Compound 13, 3-Methyl-1-(1-methylpyrrolidin-3-yl)-5-(oxetan-3-yloxy)-1H-indole]",,,> 10000,> 10000
"Cc1cn(C2CCNC2)c2ccc(F)cc12 (stereo not shown) [Compound 14, 5-fluoro-3-methyl-1-(pyrrolidin-3-yl)-1H-indole]",,101 to 1000,101 to 1000,101 to 1000
"Fc1ccc2c(ccn2C2CCNC2)c1F (stereo not shown) [Compound 15, 4,5-Difluoro-1-(pyrrolidin-3-yl)-1H-indole]",,101 to 1000,101 to 1000,101 to 1000
"CCN1CCC(n2cc(C)c3cc(F)ccc32)C1 (stereo not shown) [Compound 16, 1-(1-Ethylpyrrolidin-3-yl)-5-fluoro-3-methyl-1H-indole]",,,1000 to 10000,> 10000
"CCN1CCC(n2ccc3c(F)c(F)ccc32)C1 (stereo not shown) [Compound 17, 1-(1-ethylpyrrolidin-3-yl)-4,5-difluoro-1H-indole]",,1000 to 10000,1000 to 10000,> 10000
"Cc1cn(C2CCN(C(C)C)C2)c2ccc(F)cc12 (stereo not shown) [Compound 18, 5-fluoro-1-(1-isopropylpyrrolidin-3-yl)-3-methyl-1H-indole]",,,1000 to 10000,> 10000
